Laboratory results from patent US11001872B2, “Designing customized protein-specific buffer system” (priority 2015, dated 2021).
Like-named read-outs stand apart in the source and are kept apart here. One block for each compound: values may come before it.

What was measured:
[1] = system: protein sample; assay: Protein stability screen: protein melting point temperature in MES/BTP buffer mixture; format: physicochemical
Text: In one embodiment, the present invention contemplates a method comprising a physiologic buffer mixture having a temperature-stable pKa to identify test compounds that increase stability of a sample protein by performing a protein melting point temperature screen. […] Although it is not necessary to understand the mechanism of an invention it is believed that a protein stability screen acts to define the bulk properties of a solution system (i.e. impact of pH, ionic strength, buffer etc.) and not just one specific component like most of the other screening conditions. The buffer system also acts as an internal control that simultaneously compares new and old conditions under identical conditions. Although commonly used previously, a urea stability test provides validation and verification of all testing parameters by comparative analysis with historical literature. DMSO screening allows for the nomination of conditions where protein compounds are usually insoluble (e.g., for example, drug binding studies) to identify the proper use of DMSO to solubilize these compounds without effecting the performance of the intended assay.
See, FIG. 1. […] See, FIG. 3. […] See, FIG. 4. […] See, FIG. 5. […] See, FIG. 6.
A metal ion screen was performed that compared the relative effects of five (5) different metal chloride ions, each at two different concentrations. See, FIG. 7. […] See, FIG. 8.
In one embodiment, the kit instructions comprise the following steps: • i) pre-chill the RT-PCR plate at 4° C. for 15-30 minutes prior to the addition of reagents and/or protein sample to each of the wells. • ii) The dye vial and kit plates should be stored at −20° C. and away from light until the time of use. • iii) Add 5 μl of dye to 500 μl of protein sample. The dye to protein ratio can be modified to any particular protein. For example, smaller proteins or proteins with a small hydrophobic core may require an increased dye concentration. • iv) Transfer 5 μl of each solution from the well plate to a corresponding well of the RT-PCR plate. • v) Add 5 μl of the protein/dye mixture to each well of the RT-PCR plate (>0.5 mg/ml). • vi) Mix the solutions by pipetting up and down (˜5 times). • a) gently placing all solutions at the bottom of the avoids subsequent plate centrifugation. • vii) Seal the RT-PCR plate. • viii) Immediately load the TR-PCR plate into the instrument and begin the programmed heating schedule (approximate timeframe=62 minutes), for example: • a) Heat to 20 C • b) Ramp to 90 C in 0.5 C increments. • c) Ramp to 4 C with a two minute schedule. • ix) Upload stored data file to a designated website (e.g., for example, caymanchem.com/deltatm) and follow the instructions.

[2] = system: Tryptophan hydroxylase (TH); details: cited from earlier work; for effect on TH melting temperature: buffer of 20 mM HEPES/NaOH and 100 mM (NH4)2SO4 (pH 7.0); for effect of buffer on TH stability: tested at same pH and salt concentration
[3] = biological target: T1, Dwarf27 protein (Oryza sativa subsp. japonica, UniProt C7AU21); assay: Dwarf27 protein stability screen in MES-BTP buffer mixture (melting point temperature); format: physicochemical; details: for concentration for customized buffer system for Dwarf27: MES-BTP, Spyro Orange; for effect on protein Tm as compared to the control Tm: Dwarf27 (D27), concentration screen, FIG. 16
T1 sequence (C7AU21 41-278): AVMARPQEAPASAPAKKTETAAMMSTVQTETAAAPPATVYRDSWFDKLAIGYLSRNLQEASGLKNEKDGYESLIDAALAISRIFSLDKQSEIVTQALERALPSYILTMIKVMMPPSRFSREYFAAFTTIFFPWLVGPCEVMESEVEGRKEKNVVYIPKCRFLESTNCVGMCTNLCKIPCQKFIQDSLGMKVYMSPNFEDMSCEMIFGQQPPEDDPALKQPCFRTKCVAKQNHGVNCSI
Text: Many methods have been used to describe protein stability. A primary method of early literature was the urea degradation study. As a point of comparative reference to this early literature, the present invention maintains a concentration dependent measure of protein stability relative to urea concentration. […] See, FIG. 16A. […] See, FIG. 16B.
See, FIG. 17A. In one embodiment, the present invention contemplates a multi-component single buffer mixture characterized by: i) a low delta specific heat (CP); ii) low buffer-buffer interactions; iii) low divalent cation chelation; and iv) buffering capacity over a wide pH range. In one embodiment, the multi-component single buffer mixture comprises MES and BTP. See, FIG. 17B. […] The optimal pH for Dwarf27 protein was determined by other methods to be pH 7.5 (data not shown).
Data was collected using a Spyro Orange fluorophore.
The integrated analysis compared the differences in inflection points of these protein melting temperature point screens to identify Dwarf27 protein melting point profiles. See, FIG. 19.

[4] = system: protein sample; assay: Cryoprotection protein melting point temperature screen; format: physicochemical
Protocol: For example, a protein melting point temperature screen was performed using sucrose at several different concentrations. […] See, FIG. 10. […] See, FIG. 11. […] See, FIG. 12.
Conversely, the present method can also identify compounds that might not be expected to provide quality cryoprotectant effects. For example, glycerol is widely accepted to provide cryoprotection. […] See, FIG. 13. […] This is opposite to what one would expect for an indicative parameter to identify a quality cryoprotectant. […] Although it is not necessary to understand the mechanism of an invention, it is believed that the use of such an improved cryoprotectant improves stability for nearly two years. […] See, FIG. 14.

[5] = Kipp et al., cited from earlier work; for ΔpH=pH(60° C.)−pH(25° C.): 0.1 M, initial pH=7 (25° C.), PHTEMP simulation
[6] = Hoefmeister Series screen, higher Tm
[7] = cryoprotection screen, dose response

SMILES: [Cl-].[Li+] [lithium chloride]
- effect on protein stability (Tm) [1, 6]: improved the stability of the protein

SMILES: OC[C@@H](O)[C@@H](O)[C@H](O)[C@@H](O)CO [sorbitol]
- effect on TH melting temperature [2]: increased melting temperature

- effect on protein stability (Tm) [1, 6]: improved the stability of the protein
SMILES: O=C([O-])C(O)C(O)C(=O)[O-].[Na+].[Na+] (stereo not drawn) [sodium tartrate dibasic]

- concentration for customized buffer system for Dwarf27 [3]: 7%
SMILES: C[S+](C)[O-] [DMSO, dimethyl sulfoxide]
- effect on protein melting point temperature ([1]; buffer mixture of MES and BTP, concentration screen): consistently increased protein melting point temperatures

SMILES: O=S(=O)(O)CCCN1CCOCC1 [MOPS, 3-(N-morpholino)propanesulfonic acid]
- effect of buffer on TH stability [2]: no significant effect on stability

SMILES: Cl.N [ammonium chloride]
- effect on protein stability (Tm) [1, 6]: improved the stability of the protein

SMILES: O.O.O.O.O.O.O.O.O.O.O=S(=O)([O-])[O-].[Na+].[Na+] [sodium sulphate decahydrate]
- effect on protein stability (Tm) [1]: improved the stability of the protein

SMILES: O=[N+]([O-])[O-].[Na+] [sodium nitrate]
- effect on protein stability (Tm) [1, 6]: improved the stability of the protein

SMILES: OC[C@@H](O)[C@H](O)[C@@H](O)CO [xylitol]
- effect on protein melting temperature in comparison to sucrose or trehalose ([4]; e.g. 30%): raised the protein melting temperature a full degree

SMILES: OCCO [ethylene glycol]
- effect on protein melting point temperature [4, 7]: dose-dependent decrease in protein melting point temperatures

SMILES: [F-].[Na+] [sodium fluoride]
- effect on protein stability (Tm) [1, 6]: improved the stability of the protein

SMILES: CC(=O)O [acetic acid]
- ΔpH=pH(60° C.)−pH(25° C.) [5]: approximately 0
- ΔH zero (enthalpy of acid dissociation) [5]: -0.1 kcal/mol

SMILES: O.O.[Ca+2].[Cl-].[Cl-] [calcium chloride dihydrate]
- effect on protein stability (Tm) [1]: improved the stability of the protein

SMILES: N.N.O=S(=O)(O)O [ammonium sulphate]
- effect on protein Tm as compared to the control Tm [3]: concentration-dependent increase in protein Tm

SMILES: CCN(CC)CC [triethylamine]
- ΔpH=pH(60° C.)−pH(25° C.) [5]: approximately −0.8
- ΔH zero (enthalpy of acid dissociation) [5]: 10.4 kcal/mol

SMILES: OCC(CO)(CO)NCCCNC(CO)(CO)CO [Bis Tris Propane]
- effect of buffer on TH stability [2]: no significant effect on stability

SMILES: CC(=O)[O-].O.O.O.[Na+] [sodium acetate trihydrate]
- effect on protein stability (Tm) [1]: improved the stability of the protein

SMILES: O=S(=O)(O)O [sulfuric acid]
- ΔpH=pH(60° C.)−pH(25° C.) [5]: approximately −0.4
- ΔH zero 1 [5]: -12 kcal/mol
- ΔH zero 2 [5]: -5.4 kcal/mol

SMILES: [Cl-].[K+] [potassium chloride]
- effect on protein stability (Tm) [1, 6]: improved the stability of the protein

- effect on protein ([1]; MES/BTP, urea concentrations in excess of 1.75 M, no melting point determinable): complete protein denaturation
- effect on protein melting point temperature ([1]; MES/BTP, urea under 0.5 M or between 0.75-1.75 M): lower protein melting point temperatures
- effect on protein Tm as compared to the control Tm [3]: generalized decreases in protein Tm
SMILES: NC(N)=O [urea]

SMILES: N[C@@H](CCC(=O)O)C(=O)O [glutamic acid]
- concentration for customized buffer system for Dwarf27 [3]: 25 mM

SMILES: [Cl][Co][Cl] [cobalt chloride]
- concentration for customized buffer system for Dwarf27 [3]: 0.005 to 0.025 mM

- effect on protein stability (Tm) [1, 6]: improved the stability of the protein
- concentration for customized buffer system for Dwarf27 [3]: 50 mM
SMILES: O=P([O-])([O-])O.[Na+].[Na+] [sodium phosphate dibasic]

SMILES: O=S(=O)(O)CCN1CCN(CCO)CC1 [HEPES, 4-(2-hydroxyethyl)-1-piperazine ethanesulfonic acid]
- effect of buffer on TH stability [2]: no significant effect on stability

SMILES: N#C[S-].[Na+] [sodium thiocynate]
- effect on protein stability (Tm) [1, 6]: improved the stability of the protein

SMILES: [I-].[Na+] [sodium iodide]
- effect on protein stability (Tm) [1, 6]: improved the stability of the protein

- increase in protein melting temperature relative to sucrose ([4]; cryoprotection screen): more pronounced than sucrose
SMILES: OC[C@H]1O[C@H](O[C@H]2O[C@H](CO)[C@@H](O)[C@H](O)[C@H]2O)[C@H](O)[C@@H](O)[C@@H]1O [trehalose]

SMILES: O=C([O-])CC(O)(CC(=O)[O-])C(=O)[O-].[Na+].[Na+].[Na+] [sodium citrate tribasic]
- effect on protein stability (Tm) [1]: improved the stability of the protein

- concentration for customized buffer system for Dwarf27 [3]: 100 mM
SMILES: O=S(=O)(O)CCN1CCN(CCS(=O)(=O)O)CC1 [PIPES, piperazine-N,N′-bis(2-ethanesulfonic acid]

- effect on protein melting point temperature ([1]; MES/BTP, glycerol concentrations above 10%): raised the protein melting temperature
- concentration for customized buffer system for Dwarf27 [3]: 2.5%
SMILES: OCC(O)CO [glycerol]
- effect on protein melting point temperature ([1]; MES/BTP, glycerol concentrations below 10%): lowered the protein melting point temperature
- effect on TH melting temperature [2]: increased melting temperature
- effect on protein melting point temperature [4, 7]: dose-dependent decrease in protein melting point temperature

SMILES: Cl.N=C(N)N [guanidinium hydrochloride]
- effect on protein stability (Tm) [1, 6]: improved the stability of the protein

- effect on protein melting point temperature ([4]; 25% sucrose and 30% sucrose): raised the melting point temperature
SMILES: OC[C@H]1O[C@@](CO)(O[C@H]2O[C@H](CO)[C@@H](O)[C@H](O)[C@H]2O)[C@@H](O)[C@@H]1O [sucrose]
- effect on TH melting temperature [2]: increased melting temperature
